Columns and labels:
[1] = target: T1, VEGFR2 (Homo sapiens, UniProt P35968); assay: radiometric kinase assay; assay type: biochemical
T1 construct: gene KDR

[2] = target: T2, MNK1 (Homo sapiens, UniProt Q9BUB5); assay: radiometric kinase assay; assay type: biochemical
T2 construct: gene MKNK1
T2 sequence (Q9BUB5 whole entry): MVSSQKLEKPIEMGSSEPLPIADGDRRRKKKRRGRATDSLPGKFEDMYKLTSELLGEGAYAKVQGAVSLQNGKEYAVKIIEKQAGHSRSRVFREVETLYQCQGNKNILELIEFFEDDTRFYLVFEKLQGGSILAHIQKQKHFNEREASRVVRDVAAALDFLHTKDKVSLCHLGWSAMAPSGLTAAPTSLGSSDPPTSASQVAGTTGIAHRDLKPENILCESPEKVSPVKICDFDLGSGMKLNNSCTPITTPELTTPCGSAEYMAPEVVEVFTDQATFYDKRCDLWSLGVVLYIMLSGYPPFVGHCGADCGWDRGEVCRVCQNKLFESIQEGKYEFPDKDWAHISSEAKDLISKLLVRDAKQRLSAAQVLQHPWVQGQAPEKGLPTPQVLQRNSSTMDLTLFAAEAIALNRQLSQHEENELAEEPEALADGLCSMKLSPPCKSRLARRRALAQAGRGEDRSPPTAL

T1 sequence (P35968 20-1356): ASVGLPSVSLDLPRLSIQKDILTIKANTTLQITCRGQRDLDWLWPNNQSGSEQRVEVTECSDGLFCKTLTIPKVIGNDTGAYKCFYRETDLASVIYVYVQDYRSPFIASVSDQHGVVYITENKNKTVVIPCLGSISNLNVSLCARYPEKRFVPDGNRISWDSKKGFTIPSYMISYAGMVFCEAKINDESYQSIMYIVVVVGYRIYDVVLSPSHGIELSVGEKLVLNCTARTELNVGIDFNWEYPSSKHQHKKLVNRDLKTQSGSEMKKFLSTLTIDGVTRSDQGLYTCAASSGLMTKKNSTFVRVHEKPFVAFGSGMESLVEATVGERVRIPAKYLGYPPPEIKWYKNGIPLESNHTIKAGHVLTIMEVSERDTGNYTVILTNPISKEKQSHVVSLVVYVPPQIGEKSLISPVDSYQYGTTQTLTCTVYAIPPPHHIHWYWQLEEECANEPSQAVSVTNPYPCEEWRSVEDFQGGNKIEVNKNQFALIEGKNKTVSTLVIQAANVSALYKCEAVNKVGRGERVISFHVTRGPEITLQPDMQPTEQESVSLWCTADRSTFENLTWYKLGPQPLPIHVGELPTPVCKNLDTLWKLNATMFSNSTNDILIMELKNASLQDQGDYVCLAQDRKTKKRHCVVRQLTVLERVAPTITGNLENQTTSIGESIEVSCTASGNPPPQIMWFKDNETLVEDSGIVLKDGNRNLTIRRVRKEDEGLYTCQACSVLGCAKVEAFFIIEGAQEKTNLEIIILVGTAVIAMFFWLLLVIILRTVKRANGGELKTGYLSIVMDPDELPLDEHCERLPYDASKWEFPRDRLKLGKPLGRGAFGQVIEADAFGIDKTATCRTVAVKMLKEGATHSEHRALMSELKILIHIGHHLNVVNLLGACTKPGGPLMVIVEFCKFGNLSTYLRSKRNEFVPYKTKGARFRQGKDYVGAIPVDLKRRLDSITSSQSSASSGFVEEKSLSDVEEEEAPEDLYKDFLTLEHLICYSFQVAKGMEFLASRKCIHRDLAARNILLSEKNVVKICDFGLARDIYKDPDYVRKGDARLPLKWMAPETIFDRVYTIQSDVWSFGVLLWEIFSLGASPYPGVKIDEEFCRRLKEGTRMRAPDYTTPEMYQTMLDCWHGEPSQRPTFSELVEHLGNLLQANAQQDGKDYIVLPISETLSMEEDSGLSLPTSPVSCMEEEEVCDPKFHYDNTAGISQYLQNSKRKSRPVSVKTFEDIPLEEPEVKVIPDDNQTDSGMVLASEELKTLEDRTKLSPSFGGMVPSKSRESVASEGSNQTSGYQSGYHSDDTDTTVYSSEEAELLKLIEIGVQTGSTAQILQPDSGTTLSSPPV

IC50 [1]: 3 nM | IC50 [2]: 26.6 nM
Compound: Cc1cc(Nc2ncnn3cc(OCCN4CCC(F)(F)C4)c(C)c23)c(=O)n2c1C(=O)NC21CCCC1 [JDB153]
